According to the NIST ThermoML archive (doi:10.1016/j.jct.2004.09.009):

Key:
[1] = Liquid; for mass density: 298.15 K, 101.33 kPa, Vibrating tube method; for vapor or sublimation pressure / Normal boiling temperature: Ebulliometric method (Recirculating still)
[2] = xn = mol fraction of the nth substance listed; conditions: 101.3 kPa, Liquid

CCC(C)O (stereo not drawn) [butan-2-ol]
[1]
Conditions	Normal boiling temperature [°C]	mass density [kg/m3]
–	99.19	802.4

[1]
Conditions	vapor or sublimation pressure [kPa]
355.98 K	53.32
358.8 K	59.98
361.41 K	66.64
363.82 K	73.31
366.02 K	79.97
368.13 K	86.64
370.09 K	93.3
370.83 K	95.97
371.54 K	98.63
372.34 K	101.3
373.09 K	103.97
373.79 K	106.63
375.46 K	113.3
377.04 K	119.96
378.57 K	126.63
380.02 K	133.29
381.42 K	139.95
382.76 K	146.62
384.06 K	153.28
385.31 K	159.95
386.52 K	166.61
387.69 K	173.28
388.83 K	179.94
389.94 K	186.61
391 K	193.27
392.05 K	199.93
393.07 K	206.6
394.07 K	213.26
395.06 K	219.93
396.01 K	226.59
396.94 K	233.26
397.86 K	239.92
398.76 K	246.59
399.64 K	253.25
400.48 K	259.91
401.34 K	266.58
402.19 K	273.24
402.98 K	279.91
403.77 K	286.57
404.56 K	293.24
405.32 K	299.9

CCOC(=O)OCC [diethyl carbonate]
[1]
Conditions	Normal boiling temperature [°C]	mass density [kg/m3]
–	126.17	969.24

CCOC(=O)OCC [diethyl carbonate] + CC1CCCCC1
mass density [kg/m3], [2]
Conditions	293.15 K	298.15 K	303.15 K	308.15 K	313.15 K
x1 = 0.0473	777.44	773.05	768.64	764.22	759.78
x1 = 0.0978	786.43	781.97	777.5	773	768.48
x1 = 0.1985	804.96	800.36	795.73	791.09	786.42
x1 = 0.2968	823.73	818.99	814.23	809.44	804.6
x1 = 0.3924	842.56	837.7	832.8	827.88	822.9
x1 = 0.4993	864.26	859.23	854.18	849.14	844.04
x1 = 0.5999	885.33	880.2	875.04	869.85	864.64
x1 = 0.6985	906.48	901.24	895.95	890.65	885.31
x1 = 0.7988	928.64	923.28	917.88	912.46	907.02
x1 = 0.8996	951.53	946.06	940.54	935.01	929.44
x1 = 0.9509	963.41	957.86	952.29	946.7	941.08
x1 = 1	974.83	969.24	963.61	957.96	952.29

COC(=O)OC [dimethyl carbonate]
[1]
Conditions	Normal boiling temperature [°C]	mass density [kg/m3]
–	90.31	1063.36

CC1CCCCC1 [methylcyclohexane]
[1]
Conditions	Normal boiling temperature [°C]	mass density [kg/m3]
–	100.92	764.98

[1]
Conditions	vapor or sublimation pressure [kPa]
352.46 K	53.32
356.26 K	59.98
359.62 K	66.64
362.83 K	73.31
365.81 K	79.97
368.47 K	86.64
370.99 K	93.3
371.98 K	95.97
373.08 K	98.63
374.07 K	101.3
374.95 K	103.97
375.86 K	106.63
378.04 K	113.3
380.12 K	119.96
382.12 K	126.63
384.05 K	133.29
385.89 K	139.95
387.59 K	146.62
389.36 K	153.28
391.04 K	159.95
392.8 K	166.61
394.38 K	173.28
395.87 K	179.94
397.33 K	186.61
398.76 K	193.27
400.12 K	199.93
401.45 K	206.6
402.8 K	213.26
404.1 K	219.93
405.35 K	226.59
406.56 K	233.26
407.66 K	239.92
408.9 K	246.59
409.98 K	253.25

CC1CCCCC1 [methylcyclohexane] + CCOC(=O)OCC
[2], x2 = 0
Conditions	mass density [kg/m3]
293.15 K	769.3
298.15 K	764.98
303.15 K	760.65
308.15 K	756.29
313.15 K	751.93

CC(C)O [propan-2-ol]
[1]
Conditions	Normal boiling temperature [°C]	mass density [kg/m3]
–	82.46	780.87

[1]
Conditions	vapor or sublimation pressure [kPa]
345.46 K	66.64
347.71 K	73.31
349.79 K	79.97
351.72 K	86.64
353.54 K	93.3
354.01 K	95.04
355.25 K	99.97
355.61 K	101.3
356.27 K	103.97
356.9 K	106.63
358.45 K	113.3
359.91 K	119.96
361.29 K	126.63
362.65 K	133.29
363.94 K	139.95
365.2 K	146.62
366.38 K	153.28
367.56 K	159.95
368.65 K	166.61
369.76 K	173.28
371.81 K	186.61
372.8 K	193.27
373.76 K	199.93
374.69 K	206.6
375.57 K	213.26
376.46 K	219.93
377.29 K	226.59
378.13 K	233.26
378.93 K	239.92
379.71 K	246.59
380.45 K	253.25
381.17 K	259.91
381.89 K	266.58
382.8 K	273.24
383.48 K	279.91
384.11 K	286.57
384.79 K	293.24
385.42 K	299.9
